Experimental data as given in patent US12018327B2, “Methods and compositions relating to epoxide hydrolase genes” (The Regents of the University of California, priority 2018, dated 2024).

Legend:
[1] = system: autologous T cells; assay: Co-culture of 12,13 DiHOME treated DCs with autologous T cells, T cell subsets by flow cytometry; format: cell-based, human
Description: Co-culture of human DCs and T cells in the presence of 12,13 DiHOME was performed as previously described. In brief, DCs were isolated from the PBMCs of two healthy human donors and treated for five days with 130 μM 12,13 DiHOME solubilized in 0.2% DMSO or vehicle (0.2% DMSO) in the presence of 20 ng mL^−1 IL-4 (R&D Systems, Minneapolis, MN) and 10 ng mL^−1 GM-CSF (R&D Systems, Minneapolis, MN). Fresh treatment media was added every 48 hrs throughout the course of the study. Eighteen hours prior to co-culture, DCs were stimulated with 10 ng mL^−1 TNFα, IL1β, and IL-6 (Peprotech, Rocky Hill, NJ) and 1 mM prostaglandin E2 (Stemcell Technologies, Cambridge, MA). DCs were subsequently washed and co-cultured with autologous T cells in the presence of 10 ng mL^−1 anti-CD28 and anti-CD49d (BD Bioscience, San Jose, CA).
After five days of co-culture, T cell subsets were analyzed by flow cytometry. To assess cytokine secretion, cells were stimulated for 16 hrs with Phorbol Myristate Acetate-Ionomycin (ACROS, Morris Planes, NJ) and GolgiPlug (Gplug; BD Biosciences, San Jose, CA). Flow cytometry data was collected on a BD LSR II flow cytometer. Helper T cell subsets were defined as follows: Th1 CD3+CD4+IFNγ+; Th2 CD3+CD4+IL-4+; Th17 CD3+CD4+IL-17+, Treg CD3+CD4+CD25+FoxP3+. The human T cell gating strategy can be found in FIG. 4D.

[2] = system: CRA-challenged mice; assay: Cockroach antigen (CRA) airway sensitization and challenge model; format: in vivo; settings: for frequency of lung resident alveolar macrophages (CD11c+CD11b+F4/80+Siglec-F+): compared to vehicle treated
Description: Six-week-old female C57B6 mice were obtained from Jackson Laboratories (Sacramento, CA). Mice were treated on days 1, 2, 3, 14, and 21 with 30 mg kg^−1 12,13 DiHOME solubilized in 10% DMSO or vehicle (10% DMSO) by peritoneal injection. Three hours after injection, mice were challenged intra-tracheally with either PBS or CRA (20,000 PNU mL^−1; Greer, Lenoir, NC). Twenty-four hours after the final challenge mice were anesthetized, injected retro-orbitally with 100 μL CD45-APC (1:10), allowed to recover from anesthesia, and subsequently sacrificed. Lungs and plasma were collected. Serum was isolated, and serum IgE levels were measured using a Mouse IgE ELISA Max kit (Biolegend, San Diego, CA).
Lungs were sent to the Mouse Pathology Core at UCSF for H&E staining of paraffin-embedded tissue sections. Two bronchioles and two vessels from each stained tissue section were scored on a 0-4 scale with 0, representing structures with no inflammatory infiltrates; 1, representing few inflammatory cells; 2, representing a ring 1 cell-layer wide; 3, representing a ring 2-4 cells wide; and 4, representing a ring of inflammatory cells more than 4 cells wide. Each structure was scored by two blinded-individuals, and scores were averaged for each animal. Cell counts were determined for each structure. In brief, the ImageJ freehand selection tool was used to trace the perimeter of each bronchiole and vessel. The area extending beyond the perimeter of the vessel was cleared, and the color threshold of the image was adjusted using the default method with the following parameters: hue=0-255, saturation=0-255, brightness=130-255, threshold color=white, background=dark, color space=HSB. The image was converted to an 8-bit grey scale, and the threshold was adjusted using the B&W defaults and a range of 0-150. Counts were outlined and summarized using the analyze particles window (size=0-infinity, circularity=0.0-1.00).
Lung cell subsets were assessed by flow cytometry. Lung tissue was manually dissected, digested with 5 mg per sample collagenase (Sigma-Aldrich, St. Louis, MO), and passed through a […] filter to generate single cell suspensions. […] Gating strategy can be found in FIG. 5C. Regulatory T cells were identified as CD3+CD4+CD25+FoxP3+ cells. The human T cell gating strategy was also applied to mouse lungs. A representative flow plot can be found in FIG. 5D.
Lung tissue was preserved in RNAlater (Ambion, Foster City, CA). Preserved lung tissue was homogenized in Lysing Matrix E Tubes using a FastPrep 24 Homogenizer (MP Biomedicals, Santa Ana, CA) and extracted using an RNAeasy Mini Kit (Qiagen, Germantown, MD). qPCR was performed on lung tissue, as described above, to evaluate expression of IL1α, IL1β, and TNF relative to GAPDH.

[3] = system: PPARγ; assay: PPARγ-activated luciferase reporter assay in Raw264.7 cells; format: cell-based; settings: 24 hours after treatment
Description: A modified PPARγ luciferase assay was performed as described in Ye et. al.. A PPRE-luciferase reporter plasmid, PPRE X3-TK-luc from Bruce Spiegelman (Plasmid #1015; Addgene, Cambridge, MA), and a PPARγ overexpression plasmid, pGST-PPARgamma from Bert Vogelstein (Plasmid #16549; Addgene, Cambridge, MA), were ordered from Addgene and purified with the Plasmid Plus Maxi Kit (Qiagen, Germantown, MD). Raw264.7 cells grown in R10 media (Roswell Park Memorial Institute (RPMI) media 1640 with 10% heat-inactivated Fetal Bovine SerμMand 2 mM L-glutamine and 100 U mL^−1 penicillin—streptomycin) were transfected with the PPRE-reporter, PPARγ, and Renilla luciferase plasmid DNA in a 1:20:40 ratio, using 50 ng/well of reporter plasmid DNA. Fugene HD Transfection reagent (Promega, Madison, WI) was combined with plasmid DNA in a 4:1 ratio, and the total volume was brought to 5 μL/well with RPMI. The transfection mixture was gently combined with dilute Raw264.7 cells and plated in black, clear-bottom, 96-well plates at a density of 50,000 cells per well. […] Twenty-four hours after treatment luciferase and Renilla luminescence were measured using the Dual-Glo Luciferase Assay kit (Promega, Madison, WI) on a Cytation 3 plate reader (BioTek Instruments, Winooski, VT).

[4] = system: human DCs (CD3-CD19-CD11c+); assay: Human DC maturation by flow cytometry (PPARγ-regulated proteins); format: cell-based
Description: Human DC maturation was assessed by flow cytometry. PBMCs were isolated from two healthy human donors using Ficoll-Hypaque gradient centrifugation as previously described and cultured for five days in the presence of 20 ng mL^−1 IL-4 and 10 ng mL^−1 GM-CSF. Monocytic DCs (DCs) were defined as CD3-CD19-CD11c+. The DC gating strategy can be found in FIG. 4E.

[5] = 30 mg kg^−1 peritoneal, CRA-challenged, vs vehicle treated PBS or CRA challenged
[6] = CRA challenged, vs vehicle treated PBS or CRA challenged
[7] = CRA-challenged, vs vehicle treated PBS or CRA challenged
[8] = H&E lung sections, 0-4 scale, vs vehicle treated PBS or CRA challenged

Structure (SMILES): CCCCCC(O)C(O)C/C=C\CCCCCCCC(=O)O (stereo not shown) [12,13 DiHOME]
- cell viability ([1]; DC and T cell co-culture): without decreasing
- distribution of helper T cells ([1]; DCs treated with 130 μM): significant shift
- frequency of Tregs (CD3+CD4+CD25+FoxP3+) ([1]; DCs treated with 130 μM): specific decrease
- expression of IL1β in lung [2, 5]: increased
- frequency of lung resident T cells (CD3+) [2, 5]: increased
- number of infiltrating cells surrounding the bronchioles [2, 5]: increased
- number of infiltrating cells surrounding the veins [2, 5]: increased
- lung Treg frequency ([2]; 30 mg kg^−1 peritoneal, CRA-challenged, vs vehicle-treated CRA-challenged): decreased
- serum IgE ([2]; 30 mg kg^−1 peritoneal, vs CRA-challenged and PBS-challenged animals): increased
- expression of IL1α in lung [2, 6]: increased
- expression of TNF in lung [2, 6]: increased
- frequency of live resident cells in the lungs [2, 7]: did not increase
- frequency of lung resident monocytes (F4-80+Ly6C+Ly6G-CD11b+) [2, 7]: significantly increased
- frequency of lung resident neutrophils (Ly6G+CD11b+) [2, 7]: significantly increased
- frequency of resident lung cells [2, 7]: decreased
- peribronchial inflammation score [2, 8]: increased
- perivascular inflammation score [2, 8]: increased
- frequency of lung resident alveolar macrophages (CD11c+CD11b+F4/80+Siglec-F+) ([2]; CRA challenged animals): decreased
- frequency of lung resident alveolar macrophages (CD11c+CD11b+F4/80+Siglec-F+) ([2]; PBS challenged animals): increased
- concentrations that lead to PPARγ activation [3]: > 50 µM
- expression of CD36 on DCs ([4]; high concentrations (200 μM)): increase
- cell viability ([4]; human DCs, flow cytometry): did not alter
- expression of CCR7 on DCs ([4]; increasing doses): significant decrease
- expression of CD1a on DCs ([4]; increasing doses): significant decrease
- expression of CD80 on DCs ([4]; increasing doses): significant decrease
